Laboratory results reported in ChEMBL document CHEMBL1201862, “PubChem BioAssay data set” (2004).
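How tested: cells in 96-well plates exposed to compound for 48 hours at five concentrations. The concentration for 50% growth inhibition is given as GI50.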 Activity calls are given as the source filed them. Rule as the data show it: active = GI50 up to about 1.1 µM and inactive = higher.

What was measured:
Assay in all cases: DTP human tumour cell line panel, 48 h
SN12C = system: SN12C
SNB-19 = system: SNB-19
HT-29 = system: HT-29
SF-268 = system: SF-268
TK-10 = system: TK-10
A549 = system: A549
SF-295 = system: SF-295
HOP-92 = system: HOP-92
NCI-H23 = system: NCI-H23
ACHN = system: ACHN
K562 = system: K562
HOP-62 = system: HOP-62
SF-539 = system: SF-539
CCRF-CEM = system: CCRF-CEM
HCC 2998 = system: HCC 2998
CAKI-1 = system: CAKI-1
HCT-15 = system: HCT-15

SMILES	GI50 (SN12C)	GI50 (SNB-19)	GI50 (HT-29)	GI50 (SF-268)	GI50 (TK-10)	GI50 (A549)	GI50 (SF-295)	GI50 (HOP-92)	GI50 (NCI-H23)	GI50 (ACHN)	GI50 (K562)	GI50 (HOP-62)	GI50 (SF-539)	GI50 (CCRF-CEM)	GI50 (HCC 2998)	GI50 (CAKI-1)	GI50 (HCT-15)
C=CCC(N(C)C(=O)[C@H](Cc1ccccc1)NC(=O)OCc1ccccc1)P(=O)(Oc1ccccc1)Oc1ccccc1 (stereo partly specified)	> 100 µM (inactive)	> 100 µM (inactive)	> 100 µM (inactive)	> 100 µM (inactive)	> 100 µM (inactive)	5.81 µM (inactive)	> 100 µM (inactive)	29 µM (inactive)	> 100 µM (inactive)	6.5 µM (inactive)	9.2 µM (inactive)	> 100 µM (inactive)	> 100 µM (inactive)	8.51 µM (inactive)	> 100 µM (inactive)	–	–
O=C1CCCCCCCCCCC(=O)N2CCOCCOCCN1Cc1cccc(n1)C2	> 100 µM (inactive)	> 100 µM (inactive)	> 100 µM (inactive)	> 100 µM (inactive)	> 100 µM (inactive)	> 100 µM (inactive)	65.5 µM (inactive)	–	> 100 µM (inactive)	> 100 µM (inactive)	81.1 µM (inactive)	> 100 µM (inactive)	83.2 µM (inactive)	> 100 µM (inactive)	> 100 µM (inactive)	> 100 µM (inactive)	> 100 µM
Cc1c(C(=O)CC(=O)C(=O)Nc2cccc(C(F)(F)F)c2)[n+]([O-])c2ccccc2[n+]1[O-]	3.37 µM (inactive)	4.88 µM (inactive)	3.79 µM (inactive)	3.67 µM (inactive)	28.2 µM (inactive)	14.4 µM (inactive)	10.6 µM (inactive)	14.3 µM (inactive)	7.36 µM (inactive)	3.15 µM (inactive)	3.8 µM (inactive)	23.6 µM (inactive)	3.13 µM (inactive)	2.51 µM (inactive)	4.72 µM (inactive)	6.47 µM (inactive)	3.31 µM
COc1ccc(CNc2cnc3ccc(N)cc3n2)cc1OC	> 100 µM (inactive)	> 100 µM (inactive)	> 100 µM (inactive)	> 100 µM (inactive)	64.6 µM (inactive)	> 100 µM (inactive)	> 100 µM (inactive)	–	> 100 µM (inactive)	> 100 µM (inactive)	> 100 µM (inactive)	> 10 µM (inactive)	> 100 µM (inactive)	> 100 µM (inactive)	> 100 µM (inactive)	> 100 µM (inactive)	> 100 µM
O=C(/C=C/c1ccco1)N1CCN(Cc2ccccc2)CC1	> 100 µM (inactive)	> 100 µM (inactive)	> 100 µM (inactive)	> 100 µM (inactive)	> 100 µM (inactive)	> 100 µM (inactive)	> 100 µM (inactive)	> 100 µM (inactive)	> 100 µM (inactive)	> 100 µM (inactive)	–	> 100 µM (inactive)	> 100 µM (inactive)	> 100 µM (inactive)	> 100 µM (inactive)	> 100 µM (inactive)	> 100 µM
O=C(COc1ccc(Br)cc1Br)N1N=C(c2ccc([N+](=O)[O-])o2)CC1(O)c1ccccc1 (stereo unspecified)	12.2 µM (inactive)	19.3 µM (inactive)	13.4 µM (inactive)	12.3 µM (inactive)	–	8.65 µM (inactive)	18.7 µM (inactive)	–	12.4 µM (inactive)	15.3 µM (inactive)	4.7 µM (inactive)	13.2 µM (inactive)	> 10 µM (inactive)	3.13 µM (inactive)	10.6 µM (inactive)	14.5 µM (inactive)	6.19 µM
Cn1c2c(c3ccccc31)C1CCCCCCC1C1C(=O)OC(=O)C21 (stereo unspecified)	39.5 µM (inactive)	44.8 µM (inactive)	30.1 µM (inactive)	45.2 µM (inactive)	> 100 µM (inactive)	36.9 µM (inactive)	35.2 µM (inactive)	–	69.7 µM (inactive)	56 µM (inactive)	31.3 µM (inactive)	–	39.8 µM (inactive)	24.3 µM (inactive)	22.4 µM (inactive)	–	30.2 µM
CN(C)c1ccc(/C=C/c2ccc(/C=C/c3ccc(N(C)C)cc3)cc2)cc1	> 100 µM (inactive)	78.5 µM (inactive)	> 100 µM (inactive)	> 100 µM (inactive)	> 100 µM (inactive)	95.9 µM (inactive)	89.1 µM (inactive)	92.5 µM (inactive)	94.6 µM (inactive)	57.8 µM (inactive)	75.5 µM (inactive)	–	> 100 µM (inactive)	> 100 µM (inactive)	> 100 µM (inactive)	> 100 µM (inactive)	> 100 µM
CC1C(=O)O[C@H]2C1CC[C@@]1(C)[C@H](O)CC[C@@]13C[C@]2(O)OO3 (stereo partly specified)	> 100 µM (inactive)	> 100 µM (inactive)	> 100 µM (inactive)	> 100 µM (inactive)	> 100 µM (inactive)	> 100 µM (inactive)	> 100 µM (inactive)	> 100 µM (inactive)	> 100 µM (inactive)	> 100 µM (inactive)	> 100 µM (inactive)	> 100 µM (inactive)	–	> 100 µM (inactive)	> 100 µM (inactive)	> 100 µM (inactive)	> 100 µM
